Results taken from the supplement of paper PMC4862054.

Experiments:
Experiment in all cases: normalised viability (% of control), CellTiter-Blue; higher = more viable cells (about 100 = DMSO control)
Conditions in all cases: incubation time: 72 h
BT-474 [1] = tested on: BT-474
Experimental: (§1)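 DSRT, CellTiter-Blue viability, 72 h incubation. Signal is normalised to DMSO and benzethonium chloride controls. Value is the normalised response at dose 3.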

BT-549 [2] = tested on: BT-549
Experimental: as §1

CAL-120 [3] = tested on: CAL-120
Experimental: as §1

CAL-148 = tested on: CAL-148
Experimental: as §1

CAL-51 [4] = tested on: CAL-51
Experimental: as §1

CAL-85-1 [5] = tested on: CAL-85-1
Experimental: as §1

DU-4475 [6] = tested on: DU-4475
Experimental: as §1

HCC1143 [7] = tested on: HCC1143
Experimental: as §1

HCC1599 = tested on: HCC1599
Experimental: as §1

HCC1937 = tested on: HCC1937
Experimental: as §1

HDQ-P1 [8] = tested on: HDQ-P1
Experimental: as §1

MDA-MB-231 = tested on: MDA-MB-231
Experimental: as §1

MDA-MB-436 = tested on: MDA-MB-436
Experimental: as §1

MDA-MB-453 [9] = tested on: MDA-MB-453
Experimental: as §1

MDA-MB-468 [10] = tested on: MDA-MB-468
Experimental: as §1

SK-BR-3 [11] = tested on: SK-BR-3
Experimental: as §1

BT-474 [12] = tested on: BT-474; remark: listed apart in the source
Method in brief: (§2)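 Each value is normalised viability at a single listed concentration of the series. Breast cancer cell lines in 384-well plates were incubated 72 h with compound and read by CellTiter-Blue fluorescence at 560/590 nm, with vehicle set to 100 and a positive kill control to 0 on every plate.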

BT-549 [13] = tested on: BT-549; remark: listed apart in the source
Method in brief: as §2

CAL-120 [14] = tested on: CAL-120; remark: listed apart in the source
Method in brief: as §2

CAL-51 [15] = tested on: CAL-51; remark: listed apart in the source
Method in brief: as §2

CAL-85-1 [16] = tested on: CAL-85-1; remark: listed apart in the source
Method in brief: as §2

DU-4475 [17] = tested on: DU-4475; remark: listed apart in the source
Method in brief: as §2

HCC1143 [18] = tested on: HCC1143; remark: listed apart in the source
Method in brief: as §2

HDQ-P1 [19] = tested on: HDQ-P1; remark: listed apart in the source
Method in brief: as §2

Hs578T = tested on: Hs578T
Method in brief: as §2

MDA-MB-453 [20] = tested on: MDA-MB-453; remark: listed apart in the source
Method in brief: as §2

MDA-MB-468 [21] = tested on: MDA-MB-468; remark: listed apart in the source
Method in brief: as §2

MFM-223 = tested on: MFM-223
Method in brief: as §2

SK-BR-3 [22] = tested on: SK-BR-3; remark: listed apart in the source
Method in brief: as §2

Cc1ccc(F)c(NC(=O)Nc2ccc(-c3cccc4[nH]nc(N)c34)cc2)c1 [Linifanib]
Conditions | normalised viability [%]
BT-474 [1], 10 nM | 111
BT-474 [12], 1 nM | 113
BT-474 [12], 100 nM | 108
BT-474 [12], 1000 nM | 123
BT-549 [2], 10 nM | 94.8
BT-549 [13], 1 nM | 91.5
BT-549 [13], 100 nM | 96
BT-549 [13], 1000 nM | 97.5
CAL-51 [4], 1 nM | 102
CAL-51 [15], 0.3 nM | 106
CAL-51 [15], 3 nM | 105
CAL-51 [15], 10 nM | 107
CAL-85-1 [5], 1 nM | 99
CAL-85-1 [16], 0.3 nM | 93.9
CAL-85-1 [16], 3 nM | 87.9
CAL-85-1 [16], 10 nM | 98.8
CAL-120 [3], 10 nM | 95.2
CAL-120 [14], 1 nM | 90.8
CAL-120 [14], 100 nM | 91.2
CAL-120 [14], 1000 nM | 109
CAL-148, 1 nM | 104
DU-4475 [6], 1 nM | 96.5
DU-4475 [17], 0.3 nM | 103
DU-4475 [17], 3 nM | 93.6
DU-4475 [17], 10 nM | 108
HCC1143 [7], 10 nM | 89.4
HCC1143 [18], 1 nM | 112
HCC1143 [18], 100 nM | 89
HCC1143 [18], 1000 nM | 93.9
HCC1599, 10 nM | 108
HCC1937, 10 nM | 109
HDQ-P1 [8], 1 nM | 108
HDQ-P1 [19], 0.3 nM | 107
HDQ-P1 [19], 3 nM | 111
HDQ-P1 [19], 10 nM | 103
Hs578T, 1 nM | 114
Hs578T, 100 nM | 101
Hs578T, 1000 nM | 91.3
MDA-MB-231, 10 nM | 103
MDA-MB-436, 10 nM | 124
MDA-MB-453 [9], 1 nM | 106
MDA-MB-453 [20], 0.3 nM | 111
MDA-MB-453 [20], 3 nM | 111
MDA-MB-453 [20], 10 nM | 104
MDA-MB-468 [10], 10 nM | 123
MDA-MB-468 [21], 1 nM | 182
MDA-MB-468 [21], 100 nM | 111
MDA-MB-468 [21], 1000 nM | 104
MFM-223, 1 nM | 101
MFM-223, 100 nM | 96.6
MFM-223, 1000 nM | 98.4
SK-BR-3 [11], 10 nM | 119
SK-BR-3 [22], 1 nM | 117
SK-BR-3 [22], 100 nM | 112
SK-BR-3 [22], 1000 nM | 123

COc1cc(Nc2ncc3c(n2)-c2ccc(Cl)cc2C(c2c(F)cccc2OC)=NC3)ccc1C(=O)O [MLN8237]
Conditions | normalised viability [%]
BT-474 [1], 100 nM | 72.6
BT-474 [12], 10 nM | 103
BT-474 [12], 1000 nM | 82.9
BT-474 [12], 10000 nM | 58.5
BT-549 [2], 100 nM | 62.2
BT-549 [13], 10 nM | 103
BT-549 [13], 1000 nM | 62.6
BT-549 [13], 10000 nM | 32.6
CAL-51 [4], 10 nM | 98.2
CAL-51 [15], 3 nM | 102
CAL-51 [15], 30 nM | 91.8
CAL-51 [15], 100 nM | 64.3
CAL-85-1 [5], 10 nM | 95
CAL-85-1 [16], 3 nM | 89
CAL-85-1 [16], 30 nM | 80.6
CAL-85-1 [16], 100 nM | 69.4
CAL-120 [3], 100 nM | 68.2
CAL-120 [14], 10 nM | 104
CAL-120 [14], 1000 nM | 59.8
CAL-120 [14], 10000 nM | 33.6
CAL-148, 10 nM | 94.7
DU-4475 [6], 10 nM | 102
DU-4475 [17], 3 nM | 98.3
DU-4475 [17], 30 nM | 82.6
DU-4475 [17], 100 nM | 37.5
HCC1143 [7], 100 nM | 71.2
HCC1143 [18], 10 nM | 112
HCC1143 [18], 1000 nM | 70.7
HCC1143 [18], 10000 nM | 51.1
HCC1599, 100 nM | 97.7
HCC1937, 100 nM | 65.7
HDQ-P1 [8], 10 nM | 111
HDQ-P1 [19], 3 nM | 102
HDQ-P1 [19], 30 nM | 82.2
HDQ-P1 [19], 100 nM | 64
Hs578T, 10 nM | 113
Hs578T, 1000 nM | 59.2
Hs578T, 10000 nM | 45.6
MDA-MB-231, 100 nM | 75.5
MDA-MB-436, 100 nM | 91.5
MDA-MB-453 [9], 10 nM | 84.3
MDA-MB-453 [20], 3 nM | 91.8
MDA-MB-453 [20], 30 nM | 50.2
MDA-MB-453 [20], 100 nM | 44.3
MDA-MB-468 [10], 100 nM | 62.6
MDA-MB-468 [21], 10 nM | 96.7
MDA-MB-468 [21], 1000 nM | 42.6
MDA-MB-468 [21], 10000 nM | 35.2
MFM-223, 10 nM | 79.3
MFM-223, 1000 nM | 50.7
MFM-223, 10000 nM | 30.8
SK-BR-3 [11], 100 nM | 53
SK-BR-3 [22], 10 nM | 87.3
SK-BR-3 [22], 1000 nM | 59.5
SK-BR-3 [22], 10000 nM | 46.8

S=c1[nH]cnc2nc[nH]c12 [Mercaptopurine]
Conditions | normalised viability [%]
BT-474 [1], 100 nM | 111
BT-474 [12], 10 nM | 116
BT-474 [12], 1000 nM | 108
BT-474 [12], 10000 nM | 112
BT-549 [2], 100 nM | 106
BT-549 [13], 10 nM | 115
BT-549 [13], 1000 nM | 105
BT-549 [13], 10000 nM | 95.6
CAL-51 [4], 10 nM | 108
CAL-51 [15], 3 nM | 105
CAL-51 [15], 30 nM | 101
CAL-51 [15], 100 nM | 106
CAL-85-1 [5], 10 nM | 93.9
CAL-85-1 [16], 3 nM | 101
CAL-85-1 [16], 30 nM | 91.8
CAL-85-1 [16], 100 nM | 103
CAL-120 [3], 100 nM | 90.2
CAL-120 [14], 10 nM | 88.1
CAL-120 [14], 1000 nM | 83.7
CAL-120 [14], 10000 nM | 47.3
CAL-148, 10 nM | 94.1
DU-4475 [6], 10 nM | 130
DU-4475 [17], 3 nM | 103
DU-4475 [17], 30 nM | 87.6
DU-4475 [17], 100 nM | 87.8
HCC1143 [7], 100 nM | 92
HCC1143 [18], 10 nM | 85.8
HCC1143 [18], 1000 nM | 95.7
HCC1143 [18], 10000 nM | 88.5
HCC1599, 100 nM | 93.5
HCC1937, 100 nM | 104
HDQ-P1 [8], 10 nM | 106
HDQ-P1 [19], 3 nM | 123
HDQ-P1 [19], 30 nM | 110
HDQ-P1 [19], 100 nM | 100
Hs578T, 10 nM | 118
Hs578T, 1000 nM | 123
Hs578T, 10000 nM | 86.7
MDA-MB-231, 100 nM | 99.8
MDA-MB-436, 100 nM | 121
MDA-MB-453 [9], 10 nM | 113
MDA-MB-453 [20], 3 nM | 116
MDA-MB-453 [20], 30 nM | 98.1
MDA-MB-453 [20], 100 nM | 110
MDA-MB-468 [10], 100 nM | 108
MDA-MB-468 [21], 10 nM | 108
MDA-MB-468 [21], 1000 nM | 64.9
MDA-MB-468 [21], 10000 nM | 69
MFM-223, 10 nM | 101
MFM-223, 1000 nM | 94
MFM-223, 10000 nM | 103
SK-BR-3 [11], 100 nM | 94
SK-BR-3 [22], 10 nM | 107
SK-BR-3 [22], 1000 nM | 95.6
SK-BR-3 [22], 10000 nM | 63.5
